In patent US20260364185A1, “Estrogen Receptor Modulator and Use Thereof” (JIANGSU VCARE PHARMATECH CO., LTD., priority 2023, published 2026) one finds IC50 data, which are given here for twelve compounds.

This experiment concerns MCF7 cells. Description: MCF7 cell activity test (CCK8 proliferation inhibition). Type of experiment: cell-based. Particulars: Homo sapiens, MCF7, 144 h, 6 days incubation. As to the method: Experimental Example 1: MCF7 cell activity test
Cell culture: MCF7 cells (culture conditions: MEM medium+20% FBS+1% essential amino acids++1 mg/100 ml insulin, 37° C., 5% CO2). Plating: The cells subcultured into the logarithmic growth phase were collected and transferred into a centrifuge tube, and centrifuged at 800 rpm for 5 min. The cells were resuspended in complete medium and counted. The cells were diluted and adjusted to a final concentration of 30,000 cells/mL. The cells were then seeded into a 96-well plate with 100 μL per well and incubated in an incubator overnight. Administration: Each group of drug solutions was added into the 96-well plate, 100 μL per well, n=3 for each drug concentration. Meanwhile, negative wells (n=6) and blank wells (n=3) were set up. The 96-well plate was incubated in the incubator for further 6 days. CCK8 reagent was added to the 96-well plate, 20 μL per well, and then the plate was placed in the incubator for further 4 h. The absorbance of the solution was measured at a wavelength of 450 nm using an enzyme reader. The proliferation inhibition rate was calculated and the half inhibitory concentration IC50 value was calculated using Graphpad Prism 6.0 software.
Turning to `Cn1nc(C2CCC(=O)NC2=O)c2ccc(N3CCN(C[C@@H]4CCCC[C@H]4CN4CCN(c5ccc([C@@H]6c7ccc(O)cc7CC[C@@H]6c6ccccc6)cc5)CC4)CC3)cc21` (stereo partly drawn) [IV-3, 3-(6-(4-(((1R,2R)-2-((4-(4-((1R,2S)-6-hydroxy-2-phenyl-1,2,3,4-tetrahydronaphthalen-1-yl)phenyl)piperazin-1-yl)methyl)cyclohexyl)methyl)piperazin-1-yl)-1-methyl-1H-indazol-3-yl)piperidine-2,6-dione], the IC50 (as a rule, the concentration at which inhibition is half-maximal) was below 25 nM. The compound `Cc1nn(C2CCC(=O)NC2=O)c2ccc(C3CCN(C[C@@H]4CCCC[C@H]4CN4CCN(c5ccc([C@@H]6c7ccc(O)cc7CC[C@@H]6c6ccccc6)cc5)CC4)CC3)cc12` (stereo partly drawn) [VI-8] registered an IC50 below 50 nM.

Consider `O=C1CCC(n2ncc3cc(N4CCN(C[C@@H]5CCCC[C@H]5CN5CCN(c6ccc([C@@H]7c8ccc(O)cc8CC[C@@H]7c7ccccc7)cc6)CC5)CC4)c(F)cc32)C(=O)N1` (stereo partly drawn) [VI-5], for which the half-maximal inhibitory concentration (IC50) was below 50 nM. Compound `C[C@H]1CC(O)(c2cc3c(cc2F)c(N2CCC(=O)NC2=O)nn3C)CCN1C[C@@H]1CCCC[C@H]1CN1CCN(c2ccc([C@@H]3c4ccc(O)cc4CC[C@@H]3c3ccccc3)cc2)CC1` (stereo partly drawn) [VI-30, 1-(5-fluoro-6-((2S)-4-hydroxy-1-(((1R,2R)-2-((4-(4-((1R,2S)-6-hydroxy-2-phenyl-1,2,3,4-tetrahydronaphthalen-1-yl)phenyl)piperazin-1-yl)methyl)cyclohexyl)methyl)-2-methylpiperidin-4-yl)-1-methyl-1H-indazol-3-yl)dihydropyrimidine-2,4 (1H,3H)-dione] registered an IC50 below 50 nM. As to `Cn1nc(N2CCC(=O)NC2=O)c2cc(F)c(C3CCC(N(C[C@@H]4CCCC[C@H]4CN4CCN(c5ccc([C@@H]6c7ccc(O)cc7CC[C@@H]6c6ccccc6)cc5)CC4)C4CC4)CC3)cc21` (stereo partly drawn) [VI-25], the IC50 is below 100 nM. The value for `C[C@@H]1CC(c2cc3c(cc2F)c(N2CCC(=O)NC2=O)nn3C)CCN1C[C@@H]1CCCC[C@H]1CN1CCN(c2ccc([C@@H]3c4ccc(O)cc4CC[C@@H]3c3ccccc3)cc2)CC1` (stereo partly drawn) [VI-20] was below 25 nM.

Compound `Cn1nc(C2CCC(=O)NC2=O)c2ccc(N3CCN(C[C@H]4CCCC[C@@H]4CN4CCN(c5ccc([C@@H]6c7ccc(O)cc7CC[C@@H]6c6ccccc6)cc5)CC4)CC3)cc21` (stereo partly drawn) [IV-4, 3-(6-(4-(((1S,2S)-2-((4-(4-((1R,2S)-6-hydroxy-2-phenyl-1,2,3,4-tetrahydronaphthalen-1-yl)phenyl)piperazin-1-yl)methyl)cyclohexyl)methyl)piperazin-1-yl)-1-methyl-1H-indazol-3-yl)piperidine-2,6-dione] displayed an IC50 below 100 nM. In turn, `Cn1nc(N2CCC(=O)NC2=O)c2cc(F)c(C3CCC(N4CCN(C[C@@H]5CCCC[C@H]5CN5CCN(c6ccc([C@@H]7c8ccc(O)cc8CC[C@@H]7c7ccccc7)cc6)CC5)CC4)CC3)cc21` (stereo partly drawn) [VI-24] yielded a concentration for half-maximal inhibition (IC50) below 25 nM.

Compound `Cn1nc(N2CCC(=O)NC2=O)c2cc(F)c(N3CC4(CN(C[C@@H]5CCCC[C@H]5CN5CCN(c6ccc([C@@H]7c8ccc(O)cc8CC[C@@H]7c7ccccc7)cc6)CC5)C4)C3)cc21` [VI-26] had a concentration for half-maximal inhibition (IC50) below 50 nM. Then `O=C1CCC(NC(=O)c2ccc(N3CCN(C[C@H]4CCCC[C@@H]4CN4CCN(c5ccc([C@@H]6c7ccc(O)cc7CC[C@@H]6c6ccccc6)cc5)CC4)CC3)cn2)C(=O)N1` (stereo partly drawn) [III-2, N-(2,6-dioxopiperidin-3-yl)-5-(4-(((1S,2S)-2-((4-(4-((1R,2S)-6-hydroxy-2-phenyl-1,2,3,4-tetrahydronaphthalen-1-yl)phenyl)piperazin-1-yl)methyl)cyclohexyl)methyl)piperazin-1-yl)pyridinecarboxamide], with below 100 nM. For `O=C1CCC(n2cnc3cc(C4CCN(C[C@@H]5CCCC[C@H]5CN5CCN(c6ccc([C@@H]7c8ccc(O)cc8CC[C@@H]7c7ccccc7)cc6)CC5)CC4)c(F)cc32)C(=O)N1` (stereo partly drawn) [Compound V-5], the IC50 is below 100 nM.

`Cc1nc2cc(N3CCN(C[C@@H]4CCCC[C@H]4CN4CCN(c5ccc([C@@H]6c7ccc(O)cc7CC[C@@H]6c6ccccc6)cc5)CC4)CC3)ccc2n1C1CCC(=O)NC1=O` (stereo partly drawn) [Compound V-1] returned an IC50 below 100 nM.
